Test results as given in patent US8748453B2, “Substituted heterocyclic compounds as kinases inhibitors and methods of use thereof” (Medolution Limited, priority 2009, dated 2014).

What was measured:
[1] = Pharmacokinetics after IV administration to Sprague-Dawley rats; conditions: rat, in vivo; for half-life: read-out: mean elimination half-life (T1/2) (converted); for clearance: read-out: mean Clearance (CL) (converted)
[2] = biological target: T1, ErbB2/HER2 (Homo sapiens, UniProt P04626); assay: Radiometric kinase assay, ErbB2/HER2; format: biochemical; conditions: read-out: potency (IC50) over Her-2 assay
T1 construct: Recombinant catalytic domain, amino acids 679-1255, GST tagged, purified from insect cells; GST; host or cells: insect cells
Protocol: (§1) Base Reaction buffer: 20 mM Hepes (pH 7.5), 10 mM MgCl2, 1 mM EGTA, 0.02% Brij35, 0.02 mg/ml BSA, 0.1 mM Na3VO4, 2 mM DTT, 1% DMSO. *Required cofactors are added individually to each kinase reaction
(§2) Prepare indicated substrate in freshly prepared Base Reaction Buffer • Deliver any required cofactors to the substrate solution above • Deliver indicated kinase into the substrate solution and gently mix • Deliver compounds in DMSO into the kinase reaction mixture • Deliver ^33P-ATP (specific activity 0.01 μCi/μl final) into the reaction mixture to initiate the reaction.
ErbB2/HER2—Genbank Accession # X03363. […] Final concentration in assay=50 nM. Substrate: pEY. Peptide sequence: Poly Glu-Tyr, 4:1 ratio. Final concentration in assay=0.2 mg·mL. 2 mM MnCl2 is added as a cofactor to the reaction mixture
(§3) Compounds in accordance with the practice of the present invention were tested in kinase assays employing high throughput radiometric techniques and nanoliter volume technology (Reaction Biology Corporation, Malvern Pa.).

[3] = biological target: T2, EGFR (Homo sapiens, UniProt P00533); assay: Radiometric kinase assay, EGFR; format: biochemical; conditions: read-out: potency (IC50) over EGFR assay
T2 construct: Recombinant catalytic domain, amino acids 668-1210, GST tagged, purified from insect cells; GST; host or cells: insect cells
Protocol: as §1, §2
Activated in vitro via autophosphorylation. Final concentration in assay=4 nM. Substrate: pEY. Peptide sequence: Poly Glu-Tyr, 4:1 ratio. Final concentration in assay=0.2 mg·mL. 2 mM MnCl2 is added as a cofactor to the reaction mixture
as §3

[4] = test system: BT-474; assay: Human tumor cell-line growth assay, BT-474; format: cell-based; conditions: BT-474 (overexpressing ErbB2), 10-dose, 3-fold dilution starting at 10 μM, read-out: IC50 growth inhibition BT-474
Protocol: (§4) Invention compounds were tested in human tumor cell-line growth assays.

[5] = test system: NCI-H1975; assay: Human tumor cell-line growth assay, NCI-H1975; format: cell-based; conditions: NCI-H1975 (EGFR mutant L858R/T790M), 10-dose, 3-fold dilution starting at 10 μM, read-out: IC50 growth inhibition NCI-H1975
Protocol: as §4

[6] = test system: A431; assay: Human tumor cell-line growth assay, A431; format: cell-based; conditions: A-431, A431 (overexpressing EGFR), 10-dose, 3-fold dilution starting at 10 μM, read-out: IC50 growth inhibition A431
Protocol: as §4

[7] = test system: NCI-H1650; assay: Human tumor cell-line growth assay, NCI-H1650; format: cell-based; conditions: NCI-H1650 (EGFR mutant E746-A750), 10-dose, 3-fold dilution starting at 10 μM, read-out: IC50 growth inhibition NCI-H1650
Protocol: as §4

[8] = test system: A549; assay: Human tumor cell-line growth assay, A549; format: cell-based; conditions: 10-dose, 3-fold dilution starting at 10 μM, read-out: IC50 growth inhibition A549
Protocol: as §4

[9] = test system: SKBR3; assay: Human tumor cell-line growth assay, SKBR3; format: cell-based; conditions: SK-BR-3, SKBR3 (overexpressing EGFR and ErbB2), 10-dose, 3-fold dilution starting at 10 μM, read-out: IC50 growth inhibition SKBR3
Protocol: as §4

T1 sequence (P04626 679-1255): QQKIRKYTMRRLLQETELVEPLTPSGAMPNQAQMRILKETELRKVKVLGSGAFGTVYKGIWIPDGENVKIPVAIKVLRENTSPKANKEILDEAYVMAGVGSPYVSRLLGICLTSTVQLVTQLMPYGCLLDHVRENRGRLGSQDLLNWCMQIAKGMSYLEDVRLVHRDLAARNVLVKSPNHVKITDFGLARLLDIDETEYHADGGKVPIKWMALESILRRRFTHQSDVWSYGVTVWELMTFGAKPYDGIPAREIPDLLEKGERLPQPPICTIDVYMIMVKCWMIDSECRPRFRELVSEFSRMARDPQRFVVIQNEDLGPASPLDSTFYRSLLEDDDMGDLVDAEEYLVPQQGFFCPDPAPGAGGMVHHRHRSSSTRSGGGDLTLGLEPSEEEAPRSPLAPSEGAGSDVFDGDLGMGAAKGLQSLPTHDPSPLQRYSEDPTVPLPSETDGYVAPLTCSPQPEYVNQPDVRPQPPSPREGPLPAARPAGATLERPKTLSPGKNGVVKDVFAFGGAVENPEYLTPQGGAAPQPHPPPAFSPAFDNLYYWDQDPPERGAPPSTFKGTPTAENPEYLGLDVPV
T2 sequence (P00533 668-1210): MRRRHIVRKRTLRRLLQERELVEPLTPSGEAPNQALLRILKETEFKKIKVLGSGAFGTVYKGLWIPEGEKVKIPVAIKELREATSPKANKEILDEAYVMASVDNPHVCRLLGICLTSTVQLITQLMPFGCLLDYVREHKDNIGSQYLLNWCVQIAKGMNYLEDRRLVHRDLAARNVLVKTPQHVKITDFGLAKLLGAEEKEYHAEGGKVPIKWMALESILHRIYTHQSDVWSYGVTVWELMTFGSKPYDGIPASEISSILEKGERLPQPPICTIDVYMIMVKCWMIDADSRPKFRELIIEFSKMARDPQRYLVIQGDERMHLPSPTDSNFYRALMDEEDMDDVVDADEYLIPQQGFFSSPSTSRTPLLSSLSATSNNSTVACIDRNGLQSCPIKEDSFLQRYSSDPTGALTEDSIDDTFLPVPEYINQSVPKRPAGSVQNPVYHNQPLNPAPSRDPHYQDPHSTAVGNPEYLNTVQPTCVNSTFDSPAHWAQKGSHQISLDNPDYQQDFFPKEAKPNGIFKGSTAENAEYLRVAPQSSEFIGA

SMILES | half-life [1] [h] | IC50 [2] [nM] | IC50 [3] [nM] | clearance [1] [mL/min/kg] | IC50 [4] [nM] | IC50 [5] [nM] | IC50 [6] [nM] | IC50 [7] [nM] | IC50 [8] [nM] | IC50 [9] [nM]
[2H]C([2H])([2H])N(C/C=C/C(=O)Nc1cc2c(Nc3ccc(OCc4ccccn4)c(Cl)c3)c(C#N)cnc2cc1OCC)C([2H])([2H])[2H] [Compound A, (E)-N-{4-[3-chloro-4-(2-pyridinylmethoxy)aniline]-3-cyano-7-ethoxy-6-quinolinyl}-4-(dimethyl-d6-amino)-2-butenamide] | 6.59 | – | – | – | – | – | – | – | – | –
[2H]C([2H])([2H])N(C/C=C/C(=O)Nc1cc2c(Nc3ccc(OCc4ccccn4)c(Cl)c3)c(C#N)cnc2cc1OCCOC)C([2H])([2H])[2H] [Example 7] | – | < 1000 | < 1000 | – | – | – | – | – | – | –
CCOc1cc2ncc(C#N)c(Nc3ccc(OCc4ccccn4)c(Cl)c3)c2cc1NC(=O)/C=C/CN(C)C [HKI272, reference compound] | 5.28 | – | – | – | – | – | – | – | – | –
[2H]C([2H])([2H])N(C/C=C/C(=O)Nc1cc2c(Nc3cccc(C#C)c3)c(C#N)cnc2cc1OCC)C([2H])([2H])[2H] [Compound B, (E)-N-(3-cyano-7-ethoxy-4-(3-ethynylphenylamino)quinolin-6-yl)-4-(dimethyl-d6-amino)but-2-enamide] | 8.76 | < 1000 | < 1000 | 47.1 | – | – | – | – | – | –
C#Cc1cccc(Nc2c(C#N)cnc3cc(OCC)c(NC(=O)/C=C/CN(C)C)cc23)c1 [Compound C, (E)-N-(3-cyano-7-ethoxy-4-(3-ethynylphenylamino)quinolin-6-yl)-4-(dimethylamino)but-2-enamide] | 5.37 | < 1000 | < 1000 | 59.7 | < 1000 | < 10000 | < 1000 | < 10000 | < 1000 | < 1000
